21 compounds from ChEMBL document CHEMBL3044742, “Pharmacophagous feeding stimulant activity of neo-clerodane diterpenoids for the turnip sawfly, Athalia rosae ruficornis” (2004) can be followed below.

Common to all, as to assay type: functional
Experiment [1] deals with Athalia rosae ruficornis. Put plainly: Pharmacophagous feeding stimulant activity in Athalia rosae ruficornis assessed as insect fed on paper for more than 10 seconds at 10^-8 g/filter paper.
Experiment [2] concerns Athalia rosae ruficornis. Put plainly: Pharmacophagous feeding stimulant activity in Athalia rosae ruficornis assessed as insect fed on paper for more than 10 seconds at 10^-7 g/filter paper.
In experiment [3] the test system is Athalia rosae ruficornis. The experiment is described as follows: Pharmacophagous feeding stimulant activity in Athalia rosae ruficornis assessed as insect fed on paper for more than 10 seconds at 10^-5 g/filter paper.
Experiment [4] concerns Athalia rosae ruficornis. The experiment is described as follows: Pharmacophagous feeding stimulant activity in Athalia rosae ruficornis assessed as insect fed on paper for more than 10 seconds at 10^-6 g/filter paper.

Molecules are shown by their SMILES. Some results are limits rather than exact numbers.

For the compound `CC(=O)OC[C@@]12[C@@H](OC(C)=O)C[C@@H](C)[C@](C)([C@@H]3C[C@H]4C=CO[C@H]4O3)[C@H]1CC[C@H](OC(C)=O)[C@]21CO1` [3-EPICARYOPTIN], the Activity with Athalia rosae ruficornis [1], in the experiment on Athalia rosae ruficornis [2], in the experiment on Athalia rosae ruficornis [3] and with Athalia rosae ruficornis [4] was 80% each time.
Consider `CC(=O)OC[C@@]12[C@@H](OC(C)=O)C[C@@H](C)[C@](C)([C@@H]3C[C@H]4C=CO[C@H]4O3)[C@H]1C[C@@H](O)[C@H](OC(=O)C(C)C)[C@]21CO1` [AJUGACHIN A], for which the Activity with Athalia rosae ruficornis [1], in the experiment with Athalia rosae ruficornis [2], with Athalia rosae ruficornis [3] and in the experiment with Athalia rosae ruficornis [4] was 80% each time.
Consider `C/C=C(\C)C(=O)O[C@@H]1CC[C@]2(CO2)[C@]2(COC(C)=O)[C@@H](OC(C)=O)C[C@@H](C)[C@](C)(C[C@H](O)C3=CC(=O)OC3)[C@@H]12` [AJUGAMARIN A1], for which the Activity in the experiment on Athalia rosae ruficornis [1], in the experiment with Athalia rosae ruficornis [2], in the experiment with Athalia rosae ruficornis [3] and in the experiment with Athalia rosae ruficornis [4] was <10% throughout.
Turning to `C/C=C(\C)C(=O)O[C@@H]1CC[C@]2(CO2)[C@]2(COC(C)=O)[C@@H](OC(C)=O)C[C@@H](C)[C@](C)(C[C@H](OC(=O)[C@@H](C)CC)C3=CC(=O)OC3)[C@@H]12` [AJUGAMARIN G1], the Activity with Athalia rosae ruficornis [1], with Athalia rosae ruficornis [2], in the experiment on Athalia rosae ruficornis [3] and in the experiment on Athalia rosae ruficornis [4] was <10% each time.
As for `C/C=C(\C)C(=O)O[C@@H](C[C@@]1(C)[C@H](C)C[C@H](OC(C)=O)[C@]2(COC(C)=O)[C@@H]1[C@H](OC(=O)[C@@H](C)CC)CC[C@]21CO1)C1=CC(=O)OC1` [AJUGAMARIN H1], the Activity with Athalia rosae ruficornis [1], in the experiment on Athalia rosae ruficornis [2], in the experiment on Athalia rosae ruficornis [3] and with Athalia rosae ruficornis [4] was <10% each time.
Consider `CC[C@H](C)C(=O)O[C@H]1CC(=O)[C@@H]2[C@@](C)(CCC3=CC(=O)OC3)[C@H](C)C[C@H](OC(C)=O)[C@@]2(COC(C)=O)[C@@]12CO2` [AJUGAREPTANSONE A], for which the Activity with Athalia rosae ruficornis [1] is on record as <10%; in the experiment on Athalia rosae ruficornis [2], <10%; in the experiment on Athalia rosae ruficornis [3], 10%; in the experiment with Athalia rosae ruficornis [4], <10%.
For the compound `C/C=C(\C)C(=O)O[C@@H](C[C@@]1(C)[C@H](C)C[C@H](OC(C)=O)[C@]2(COC(C)=O)[C@@H]1[C@H](OC(=O)/C(C)=C/C)CC[C@]21CO1)C1=CC(=O)OC1` [AJUGATAKASIN A], the Activity in the experiment on Athalia rosae ruficornis [1], in the experiment with Athalia rosae ruficornis [2], in the experiment with Athalia rosae ruficornis [3] and in the experiment on Athalia rosae ruficornis [4] was <10% in each case.
With `CC[C@H](C)C(=O)O[C@@H](C[C@@]1(C)[C@H](C)C[C@H](OC(C)=O)[C@]2(COC(C)=O)[C@@H]1[C@H](OC(=O)[C@@H](C)CC)CC[C@]21CO1)C1=CC(=O)OC1` [AJUGATAKASIN B], the Activity in the experiment with Athalia rosae ruficornis [1], in the experiment with Athalia rosae ruficornis [2], in the experiment on Athalia rosae ruficornis [3] and in the experiment with Athalia rosae ruficornis [4] was <10% each time.
Consider `CC[C@H](C)C(=O)O[C@@H](C[C@@]1(C)[C@H](C)C[C@H](OC(C)=O)[C@]2(COC(C)=O)[C@@H]1CC[C@H](O)[C@]21CO1)C1=CC(=O)OC1` [AJUGATANSIN B1], for which the Activity in the experiment on Athalia rosae ruficornis [1], in the experiment with Athalia rosae ruficornis [2], with Athalia rosae ruficornis [3] and in the experiment with Athalia rosae ruficornis [4] was <10% throughout.
As to `CC(=O)OC[C@@]12[C@@H](OC(C)=O)C[C@@H](C)[C@](C)([C@@H]3C[C@H]4C=CO[C@H]4O3)[C@H]1C[C@@H](O)[C@H](O)[C@]21CO1` [ATHALIADIOL], the Activity in the experiment on Athalia rosae ruficornis [1] amounted to 40%; with Athalia rosae ruficornis [2], 40%; in the experiment on Athalia rosae ruficornis [3], 80%; in the experiment with Athalia rosae ruficornis [4], 80%.
In the case of `CC[C@H](C)C(=O)O[C@@H](C[C@@]1(C)[C@H](C)C[C@H](OC(C)=O)[C@]2(COC(C)=O)[C@@H]1C(=O)C[C@H](O)[C@]21CO1)C1=CC(=O)OC1` [Ajugareptone], the Activity with Athalia rosae ruficornis [1], in the experiment with Athalia rosae ruficornis [2], with Athalia rosae ruficornis [3] and in the experiment on Athalia rosae ruficornis [4] was <10% in each case.
Take `CC[C@@](C)(OC(C)=O)C(=O)O[C@H]1[C@H](O)C[C@@H]2[C@@](C)([C@@H]3C[C@H]4C=CO[C@H]4O3)C(C)=C[C@H](OC(C)=O)[C@@]2(COC(C)=O)[C@@]12CO2` [CLERODENDRIN A]: the Activity in the experiment with Athalia rosae ruficornis [1] is <10%; in the experiment on Athalia rosae ruficornis [2], <10%; in the experiment with Athalia rosae ruficornis [3], 40%; in the experiment on Athalia rosae ruficornis [4], 40%.
As to `CC[C@@](C)(OC(C)=O)C(=O)O[C@H]1[C@H](O)C[C@@H]2[C@@](C)([C@@H]3C[C@H]4C=CO[C@H]4O3)[C@H](C)C[C@H](OC(C)=O)[C@@]2(COC(C)=O)[C@@]12CO2` [CLERODENDRIN B], the Activity was found to be 40% with Athalia rosae ruficornis [1], 80% in the experiment with Athalia rosae ruficornis [2], 80% in the experiment on Athalia rosae ruficornis [3] and 80% with Athalia rosae ruficornis [4].
On to `CC[C@H](C)C(=O)O[C@H]1[C@H](O)C[C@@H]2[C@@](C)([C@@H]3C[C@H]4C=CO[C@H]4O3)[C@H](C)C[C@H](OC(C)=O)[C@@]2(COC(C)=O)[C@@]12CO2` [CLERODENDRIN D], for which the Activity in the experiment with Athalia rosae ruficornis [1], in the experiment on Athalia rosae ruficornis [2], in the experiment on Athalia rosae ruficornis [3] and in the experiment with Athalia rosae ruficornis [4] was 80% each time.
In the case of `CC(=O)OC[C@@]12[C@@H](OC(C)=O)C=C(C)[C@](C)([C@@H]3C[C@H]4C=CO[C@H]4O3)[C@H]1C[C@@H](O)[C@H](OC(=O)C(C)(C)OC(C)=O)[C@]21CO1` [CLERODENDRIN E], the Activity in the experiment on Athalia rosae ruficornis [1] is given as <10%; in the experiment on Athalia rosae ruficornis [2] it was <10%; with Athalia rosae ruficornis [3], 10%; with Athalia rosae ruficornis [4] it was 10%.
On to `CC(=O)OC[C@@]12[C@@H](OC(C)=O)C=C(C)[C@](C)([C@@H]3C[C@H]4C=CO[C@H]4O3)[C@H]1C[C@@H](O)[C@H](OC(=O)[C@](C)(OC(C)=O)[C@@H](C)OC(C)=O)[C@]21CO1` [CLERODENDRIN F], for which the Activity is listed as <10% in the experiment on Athalia rosae ruficornis [1], <10% with Athalia rosae ruficornis [2], 10% in the experiment with Athalia rosae ruficornis [3] and 10% in the experiment on Athalia rosae ruficornis [4].
On to `CCC(C)C(=O)O[C@H]1[C@H](O)C[C@@H]2[C@@](C)([C@@H]3C[C@H]4C=CO[C@H]4O3)C(C)=C[C@H](OC(C)=O)[C@@]2(COC(C)=O)[C@@]12CO2` (some centres undefined) [CLERODENDRIN G], for which the Activity in the experiment with Athalia rosae ruficornis [1] is <10%; in the experiment with Athalia rosae ruficornis [2], <10%; in the experiment on Athalia rosae ruficornis [3] it was 40%; in the experiment with Athalia rosae ruficornis [4], 40%.
Take `CC(=O)OC[C@@]12[C@@H](OC(C)=O)C[C@@H](C)[C@](C)([C@@H]3C[C@H]4C=CO[C@H]4O3)[C@H]1C[C@@H](O)[C@H](OC(=O)[C@](C)(OC(C)=O)[C@@H](C)OC(C)=O)[C@]21CO1` [CLERODENDRIN H]: the Activity in the experiment with Athalia rosae ruficornis [1], in the experiment on Athalia rosae ruficornis [2], in the experiment with Athalia rosae ruficornis [3] and with Athalia rosae ruficornis [4] was 80% each time.
As to `CC(=O)OC[C@@]12[C@@H](OC(C)=O)C=C(C)[C@](C)([C@@H]3C[C@H]4C=CO[C@H]4O3)[C@H]1C[C@@H](O)[C@H](OC(=O)[C@](C)(OC(C)=O)[C@H](C)OC(C)=O)[C@]21CO1` [CLERODENDRIN I], the Activity with Athalia rosae ruficornis [1] is <10%; in the experiment on Athalia rosae ruficornis [2], <10%; in the experiment with Athalia rosae ruficornis [3], 10%; in the experiment on Athalia rosae ruficornis [4] it was 10%.
For the compound `CC(=O)OC[C@@]12[C@@H](OC(C)=O)C[C@@H](C)[C@](C)([C@@H]3C[C@H]4C=CO[C@H]4O3)[C@H]1CCC[C@]21CO1` [CLERODIN], the Activity was determined as 40% in the experiment with Athalia rosae ruficornis [1], 80% with Athalia rosae ruficornis [2], 80% in the experiment with Athalia rosae ruficornis [3] and 80% in the experiment on Athalia rosae ruficornis [4].
Take `CCC(C)C(=O)O[C@@H]1CC[C@]2(CO2)[C@]2(COC(C)=O)[C@@H](OC(C)=O)C[C@@H](C)[C@](C)(C[C@H](O)C3=CC(=O)OC3)[C@@H]12` (some centres undefined) [DIHYDROAJUGAMARIN]: the Activity in the experiment on Athalia rosae ruficornis [1], in the experiment on Athalia rosae ruficornis [2], in the experiment on Athalia rosae ruficornis [3] and in the experiment on Athalia rosae ruficornis [4] was <10% in each case.
